# Values quoted from earlier work in paper PMC4303313 (Biochemistry, 2014).
# Experiments:
# reduced RNase = biological target: T1, reduced RNase (Bos taurus, UniProt P61823)
# T1 sequence (P61823 27-150): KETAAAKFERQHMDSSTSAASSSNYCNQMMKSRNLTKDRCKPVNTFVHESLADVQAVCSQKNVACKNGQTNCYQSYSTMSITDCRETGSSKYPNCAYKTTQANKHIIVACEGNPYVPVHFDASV
# reduced RfBP = biological target: T2, reduced RfBP (Gallus gallus, UniProt P02752); conditions: no GSH
# T2 sequence (P02752 18-238): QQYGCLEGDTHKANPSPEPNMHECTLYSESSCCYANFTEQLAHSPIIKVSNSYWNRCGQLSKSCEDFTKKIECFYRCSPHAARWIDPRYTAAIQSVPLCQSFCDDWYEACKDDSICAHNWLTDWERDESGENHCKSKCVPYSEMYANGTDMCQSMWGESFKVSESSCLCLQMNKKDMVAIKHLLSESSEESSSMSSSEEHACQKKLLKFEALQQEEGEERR
structure (smiles),measurement,setting,value
C[As](O)O [MMA],formation of filamentous deposits from reduced RNase,reduced RNase; no GSH,led to the formation of filamentous deposits
same,formation of aggregates from reduced RNase,reduced RNase; reduced RNase and GSH,do not appear
same,effect on ability of reoxidized RfBP to rebind riboflavin,reduced RfBP,profoundly attenuated
